Holding throughout (format): in vivo
Test [1] has as its system Spodoptera littoralis (Egyqptian Cotton Leaf Worm). Description: Spodoptera littoralis, uptake by lettuce roots from agar. Conditions: 144 h, test rate of 12.5 ppm, 6 days after infestation, read-out: effect in at least one of the three categories (mortality, anti-feeding, or growth inhibition). The text has this:
Example B9: Spodoptera littoralis (Egyqptian Cotton Leaf Worm)
Test compounds were applied by pipette from 10′000 ppm DMSO stock solutions into 24-well plates and mixed with agar. Lettuce seeds were placed onto the agar and the multi well plate was closed by another plate which contained also agar. After 7 days the compound was absorbed by the roots and the lettuce grew into the lid plate. The lettuce leaves were then cut off into the lid plate. Spodoptera eggs were pipetted through a plastic stencil onto a humid gel blotting paper and the lid plate was closed with it. The samples were assessed for mortality, anti-feedant effect and growth inhibition in comparison to untreated samples 6 days after infestation.

Test [2] deals with Diabrotica Balteata (Corn Root Worm). Description: Diabrotica balteata L2 larvae on maize sprouts. Particulars: 96 h, application rate of 200 ppm, L2 larvae, 4 days after infestation, read-out: effect in at least one of the two categories (mortality or growth inhibition). The procedure:
Example B2: Diabrotica Balteata (Corn Root Worm)
Maize sprouts placed onto an agar layer in 24-well microtiter plates were treated with aqueous test solutions prepared from 10′000 ppm DMSO stock solutions by spraying. After drying, the plates were infested with L2 larvae (6 to 10 per well). The samples were assessed for mortality and growth inhibition in comparison to untreated samples 4 days after infestation.

In test [3] the test system is Plutella xylostella (Diamond Back Moth). In words: Plutella xylostella L2 larvae on artificial diet. Particulars: 120 h, application rate of 200 ppm, L2 larvae, 5 days after infestation, read-out: effect in at least one of the two categories (mortality or growth inhibition). The procedure:
Example B7: Plutella xylostella (Diamond Back Moth)
24-well microtiter plates with artificial diet were treated with aqueous test solutions prepared from 10′000 ppm DMSO stock solutions by pipetting. After drying, the plates were infested with L2 larvae (10 to 15 per well). The samples were assessed for mortality and growth inhibition in comparison to untreated samples 5 days after infestation.

Test [4] deals with Spodoptera littoralis (Egyqptian Cotton Leaf Worm). In words: Spodoptera littoralis L1 larvae on sprayed cotton leaf discs. Particulars: foliar, 72 h, application rate of 200 ppm, L1 larvae, 3 days after infestation, read-out: control (mortality, anti-feeding effect, growth inhibition). The procedure:
Example B8: Spodoptera littoralis (Egyqptian Cotton Leaf Worm)
Cotton leaf discs were placed onto agar in 24-well microtiter plates and sprayed with aqueous test solutions prepared from 10′000 ppm DMSO stock solutions. After drying the leaf discs were infested with five L1 larvae. The samples were assessed for mortality, anti-feeding effect, and growth inhibition in comparison to untreated samples 3 days after infestation. Control of Spodoptera littoralis by a test sample is given when at least one of the categories mortality, anti-feedant effect, and growth inhibition is higher than the untreated sample.

Consider `CCS(=O)(=O)c1ccc(C(=O)O)nc1-c1nnc(-c2cc(C(F)(F)F)ccn2)n1C` [A34, 5-ethylsulfonyl-6-[4-methyl-5-[4-(trifluoromethyl)-2-pyridyl]-1,2,4-triazol-3-yl]pyridine-2-carboxylic Acid], for which the percent effect (mortality, anti-feeding or growth inhibition) at 12.5 ppm in test [1] is no less than 80%.

For `CCS(=O)(=O)c1cc(N)c(Br)nc1-c1nnc(-c2cc(C(F)(F)F)ccn2)n1C` [A45], the percent effect (mortality or growth inhibition) at 200 ppm in test [2] and in test [3] was no less than 80% in each case. The percent effect (mortality, anti-feeding or growth inhibition) at 12.5 ppm in test [1] was no less than 80%. For the same compound, the mortality – broadly, the share of the test organisms that died – at 200 ppm in test [4] was no less than 80%.

Source of the values: patent US10556884B2, “Pesticidally active heterocyclic derivatives with sulphur containing substituents” (SYNGENTA PARTICIPATIONS AG, priority 2015, dated 2020).
